# Test results from US20040162263A1, “Pharmaceutical formulations targeting specific regions of the gastrointesinal tract” (priority 2002, published 2004).
# Assays:
# [1] = Pharmacokinetics of 9-nitro-camptothecin (9NC) in IVAP beagle dog model; type: in vivo, beagle dogs; details: for Mean AUC0-inf of 9-AC, Portal Vein AUC / Mean AUC0-inf of 9-AC, Systemic AUC: in ng·h/mL
# Protocol: Blood samples were taken systemic and from the portal vein through a sampling/delivery vascular port previously implanted, then plasma was separated by centrifugation and kept frozen at −80° C. until analysis.
# The samples were analyzed in a Perkin Elmer liquid chromatography-tandem mass spectrometer system with a PE LC-200 Micro pump, a PE200 Autosampler and a PE Sciex API 365 mass spectrometry unit.
# Adult male beagle dogs (between the ages of 1 and 5 years and weighed between 9 and 16 kg) were obtained from Summit Ridge Farms, Susquehanna, Pa. The IVAP dogs were prepared by using a protocol similar to the one used for pentostatin experiments described above.
# On the morning of the test, each animal is weighed and placed in the sling. An IV catheter is installed in the brachial vein for systemic blood sampling with a multiuse vacutainer needle adapter. This is flushed with heparinized saline (50 units/ml) to maintain potency between sampling. When necessary, a 20 g or 22 g right-angled Huber infusion set would be placed in the PV port and attached to a three-way stopcock for PV blood sampling.
# The preparation of the dose depends on the route of study. In case of IV and PV administration, the drug was dissolved in dimethylacetamide (DMA) at 5 mg/ml and 0.5 ml of the DMA concentrate filtered through a […] filter into 4.5 ml of diluent (51% PEG-400 49% 0.001 M H3PO4) prior to administration to the brachial or portal vein. In the case of all other infusions, as well as oral administration, the drug was dissolved in vegetable oil to a concentration of 1 mg/ml and drawn up into dosing syringes. Animals were dosed IV at 0.1 and 0.2 mg/kg and 0.2 mg/kg for all the other routes of administration tested.
# In intravascular studies, the dose is administered via a second catheter and the entire volume is delivered within 45 seconds.
# In portal vein studies, the dose is also administered via an additional catheter over a 30 min time period.
# In the case of oral dosages, the dose is delivered to the back of the mouth with an appropriate size syringe and is followed with 5 ml of tap water to assist swallowing and clearance of the dose from the mouth. Capsules were administered similarly by placing them at the back of the mouth and giving around 5 ml of water to facilitate swallowing.
# For all other tests, the dosage is infused into the appropriate intestinal port and flushed with 2-3 ml of sterile saline. The dead space volume of the ports and tubing vary slightly between individuals, but are generally less than 0.5 ml total. […]
# Systemic blood samples allow the calculation of AUC0-inf after oral capsule administration only and portal vein AUC for all the routes of administration.
# [2] = Physico-chemical properties of decitabine (solubility, stability); type: physicochemical; details: room temp
# [3] = 9-NC 0.2 mg/kg COLON port, 0.17 hr
# [4] = 9-NC 0.2 mg/kg ileum port, 0.17 hr
# [5] = 9-NC 0.2 mg/kg jejunal port, 0.17 hr
# [6] = portal vein samples, 9-NC via COLON port
# [7] = portal vein samples, 9-NC via ILEUM port
# [8] = portal vein samples, 9-NC via JEJUNUM port
# [9] = systemic samples, 9-NC via COLON port
# [10] = systemic samples, 9-NC via ILEUM port
# [11] = systemic samples, 9-NC via JEJUNUM port
smiles,measurement,setting,value
"CC[C@@]1(O)C(=O)OCc2c1cc1n(c2=O)Cc2cc3c(N)cccc3nc2-1 [9-AC, 9-amino-20(S)-camptothecin]","Mean plasma concentration, Portal Vein",[1]; [3],0.50 ± 0.03 ng/mL
same,"Mean plasma concentration, Systemic",[1]; [3],0.42 ng/mL
same,"Mean plasma concentration, Portal Vein",[1]; [4],0.12 ng/mL
same,"Mean plasma concentration, Systemic",[1]; [4],BQL
same,"Mean plasma concentration, Portal Vein",[1]; [5],0.10 ng/mL
same,"Mean plasma concentration, Systemic",[1]; [5],BQL
same,"Mean AUC0-inf of 9-AC, Portal Vein AUC",[1]; 9-NC Intracolon,20.81 ± 9.57
same,"Mean AUC0-inf of 9-AC, Systemic AUC",[1]; 9-NC Intracolon,36.91 ± 22.62
same,"Mean AUC0-inf of 9-AC, Systemic AUC",[1]; 9-NC Intraileum,21.23 ± 14.94
same,"Mean AUC0-inf of 9-AC, Portal Vein AUC",[1]; 9-NC Intrajejunal,50.26 ± 6.65
same,"Mean AUC0-inf of 9-AC, Systemic AUC",[1]; 9-NC Intrajejunal,24.41 ± 7.77
same,"Mean AUC0-inf of 9-AC, Portal Vein AUC",[1]; 9-NC Intravenous (0.1 mg/kg),10.76 ± 3.02
same,"Mean AUC0-inf of 9-AC, Systemic AUC",[1]; 9-NC Intravenous (0.1 mg/kg),12.14 ± 5.68
same,"Mean AUC0-inf of 9-AC, Portal Vein AUC",[1]; 9-NC Intravenous (0.2 mg/kg),25.02 ± 9.87
same,"Mean AUC0-inf of 9-AC, Systemic AUC",[1]; 9-NC Intravenous (0.2 mg/kg),21.04 ± 2.36
same,"Mean AUC0-inf of 9-AC, Portal Vein AUC",[1]; 9-NC Oral - capsule,66.15 ± 34.53
same,"Mean AUC0-inf of 9-AC, Systemic AUC",[1]; 9-NC Oral - capsule,44.74 ± 24.72
same,"Mean AUC0-inf of 9-AC, Portal Vein AUC",[1]; 9-NC Oral - suspension,34.43 ± 9.52
same,"Mean AUC0-inf of 9-AC, Systemic AUC",[1]; 9-NC Oral - suspension,20.31 ± 6.97
same,"Mean AUC0-inf of 9-AC, Systemic AUC",[1]; 9-NC Portal vein,4.73 ± 0.73
same,"Mean plasma concentration, Portal Vein","[1]; COLON port, 0.5 hr",0.77 ± 0.42 ng/mL
same,"Mean plasma concentration, Systemic","[1]; COLON port, 0.5 hr",0.30 ± 0.29 ng/mL
same,"Mean plasma concentration, Portal Vein","[1]; COLON port, 1 hr",1.20 ± 0.60 ng/mL
same,"Mean plasma concentration, Systemic","[1]; COLON port, 1 hr",0.45 ± 0.20 ng/mL
same,"Mean plasma concentration, Portal Vein","[1]; COLON port, 1.5 hr",1.19 ± 0.97 ng/mL
same,"Mean plasma concentration, Systemic","[1]; COLON port, 1.5 hr",0.76 ± 0.12 ng/mL
same,"Mean plasma concentration, Portal Vein","[1]; COLON port, 2 hr",1.50 ± 0.66 ng/mL
same,"Mean plasma concentration, Systemic","[1]; COLON port, 2 hr",0.68 ± 0.11 ng/mL
same,"Mean plasma concentration, Portal Vein","[1]; COLON port, 3 hr",0.88 ± 0.19 ng/mL
same,"Mean plasma concentration, Systemic","[1]; COLON port, 3 hr",0.83 ± 0.36 ng/mL
same,"Mean plasma concentration, Portal Vein","[1]; COLON port, 4 hr",2.06 ± 1.69 ng/mL
same,"Mean plasma concentration, Systemic","[1]; COLON port, 4 hr",0.90 ± 0.45 ng/mL
same,"Mean plasma concentration, Portal Vein","[1]; COLON port, 6 hr",1.54 ± 1.06 ng/mL
same,"Mean plasma concentration, Systemic","[1]; COLON port, 6 hr",0.74 ± 0.06 ng/mL
same,"Mean plasma concentration, Portal Vein","[1]; COLON port, 8 hr",0.70 ng/mL
same,"Mean plasma concentration, Systemic","[1]; COLON port, 8 hr",1.14 ± 0.38 ng/mL
same,"Mean plasma concentration, Systemic","[1]; COLON port, 10 hr",0.77 ng/mL
same,"Mean plasma concentration, Portal Vein","[1]; COLON port, 12 hr",0.76 ng/mL
same,"Mean plasma concentration, Systemic","[1]; COLON port, 12 hr",1.11 ± 0.78 ng/mL
same,"Mean plasma concentration, Portal Vein","[1]; COLON port, 24 hr",0.77 ng/mL
same,"Mean plasma concentration, Systemic","[1]; COLON port, 24 hr",0.83 ± 0.00 ng/mL
same,half-life of metabolite,[1]; after IV 0.1 mg/kg 9-NC,3.51 ± 1.87 h
same,half-life of metabolite,[1]; after IV 0.2 mg/kg 9-NC,6.94 ± 2.87 h
same,time at which the metabolite reached the maximum concentration,[1]; after IV dosing of 9-NC,around 1 hr
same,"Mean plasma concentration, Portal Vein","[1]; ileum port, 0.5 hr",0.26 ng/mL
same,"Mean plasma concentration, Systemic","[1]; ileum port, 0.5 hr",0.11 ng/mL
same,"Mean plasma concentration, Portal Vein","[1]; ileum port, 1 hr",0.28 ± 0.06 ng/mL
same,"Mean plasma concentration, Systemic","[1]; ileum port, 1 hr",0.20 ng/mL
same,"Mean plasma concentration, Portal Vein","[1]; ileum port, 1.5 hr",0.75 ± 0.52 ng/mL
same,"Mean plasma concentration, Systemic","[1]; ileum port, 1.5 hr",0.23 ± 0.10 ng/mL
same,"Mean plasma concentration, Portal Vein","[1]; ileum port, 2 hr",0.99 ± 0.60 ng/mL
same,"Mean plasma concentration, Systemic","[1]; ileum port, 2 hr",0.52 ± 0.42 ng/mL
same,"Mean plasma concentration, Portal Vein","[1]; ileum port, 3 hr",1.80 ± 1.97 ng/mL
same,"Mean plasma concentration, Systemic","[1]; ileum port, 3 hr",1.40 ng/mL
same,"Mean plasma concentration, Portal Vein","[1]; ileum port, 4 hr",3.06 ± 3.74 ng/mL
same,"Mean plasma concentration, Systemic","[1]; ileum port, 4 hr",0.86 ± 0.67 ng/mL
same,"Mean plasma concentration, Portal Vein","[1]; ileum port, 6 hr",4.09 ± 4.44 ng/mL
same,"Mean plasma concentration, Systemic","[1]; ileum port, 6 hr",1.17 ± 0.75 ng/mL
same,"Mean plasma concentration, Systemic","[1]; ileum port, 8 hr",2.04 ± 0.20 ng/mL
same,"Mean plasma concentration, Systemic","[1]; ileum port, 12 hr",0.85 ± 0.95 ng/mL
same,"Mean plasma concentration, Systemic","[1]; ileum port, 24 hr",0.47 ng/mL
same,"Mean plasma concentration, Portal Vein","[1]; jejunal port, 0.5 hr",0.12 ng/mL
same,"Mean plasma concentration, Systemic","[1]; jejunal port, 0.5 hr",BQL
same,"Mean plasma concentration, Portal Vein","[1]; jejunal port, 1 hr",0.16 ± 0.10 ng/mL
same,"Mean plasma concentration, Systemic","[1]; jejunal port, 1 hr",0.38 ng/mL
same,"Mean plasma concentration, Portal Vein","[1]; jejunal port, 2 hr",0.39 ± 0.04 ng/mL
same,"Mean plasma concentration, Systemic","[1]; jejunal port, 2 hr",0.32 ± 0.11 ng/mL
same,"Mean plasma concentration, Portal Vein","[1]; jejunal port, 3 hr",0.97 ± 0.76 ng/mL
same,"Mean plasma concentration, Systemic","[1]; jejunal port, 3 hr",0.47 ± 0.38 ng/mL
same,"Mean plasma concentration, Portal Vein","[1]; jejunal port, 4 hr",2.38 ± 2.20 ng/mL
same,"Mean plasma concentration, Systemic","[1]; jejunal port, 4 hr",0.89 ± 0.67 ng/mL
same,"Mean plasma concentration, Portal Vein","[1]; jejunal port, 6 hr",1.65 ± 1.13 ng/mL
same,"Mean plasma concentration, Systemic","[1]; jejunal port, 6 hr",1.59 ± 1.71 ng/mL
same,"Mean plasma concentration, Portal Vein","[1]; jejunal port, 8 hr",2.70 ± 0.59 ng/mL
same,"Mean plasma concentration, Systemic","[1]; jejunal port, 8 hr",1.71 ± 1.54 ng/mL
same,"Mean plasma concentration, Systemic","[1]; jejunal port, 10 hr",1.81 ± 1.09 ng/mL
same,"Mean plasma concentration, Portal Vein","[1]; jejunal port, 12 hr",2.62 ± 0.29 ng/mL
same,"Mean plasma concentration, Systemic","[1]; jejunal port, 12 hr",1.03 ± 0.05 ng/mL
same,"Mean plasma concentration, Portal Vein","[1]; jejunal port, 24 hr",0.66 ng/mL
same,"Mean plasma concentration, Systemic","[1]; jejunal port, 24 hr",0.45 ± 0.29 ng/mL
same,AUC0-INF,"[1]; portal vein samples, 0.2 mg/kg 9-NC via COLON port",20.81 ± 9.57 ng·h/mL
same,AUC0-INF,"[1]; portal vein samples, 0.2 mg/kg 9-NC via JEJUNUM port",50.26 ± 6.65 ng·h/mL
same,AUCLast,[1]; [6],12.69 ± 5.10 ng·h/mL
same,CMAX,[1]; [6],2.28 ± 1.59 ng/mL
same,MRT,[1]; [6],7.54 ± 0.61 h
same,T1/2,[1]; [6],3.98 ± 0.25 h
same,TMAX,[1]; [6],4.00 ± 2.00 h
same,AUCLast,[1]; [7],11.83 ± 12.85 ng·h/mL
same,CMAX,[1]; [7],4.10 ± 2.28 ng/mL
same,TMAX,[1]; [7],6.00 ± 0.00 h
same,AUCLast,[1]; [8],28.70 ± 12.16 ng·h/mL
same,CMAX,[1]; [8],3.46 ± 1.22 ng/mL
same,MRT,[1]; [8],13.97 ± 2.62 h
same,T1/2,[1]; [8],6.54 ± 1.30 h
same,TMAX,[1]; [8],9.33 ± 4.62 h
same,AUC0-INF,"[1]; systemic samples, 0.2 mg/kg 9-NC via COLON port",36.91 ± 22.62 ng·h/mL
same,AUC0-INF,"[1]; systemic samples, 0.2 mg/kg 9-NC via ILEUM port",21.23 ± 14.94 ng·h/mL
same,AUC0-INF,"[1]; systemic samples, 0.2 mg/kg 9-NC via JEJUNUM port",24.41 ± 7.77 ng·h/mL
same,AUCLast,[1]; [9],19.34 ± 11.92 ng·h/mL
same,CMAX,[1]; [9],1.29 ± 0.63 ng/mL
same,MRT,[1]; [9],57.62 ± 42.79 h
same,T1/2,[1]; [9],15.16 ± 14.34 h
same,TMAX,[1]; [9],9.33 ± 2.31 h
same,AUCLast,[1]; [10],18.69 ± 11.73 ng·h/mL
same,CMAX,[1]; [10],2.04 ± 0.20 ng/mL
same,MRT,[1]; [10],10.64 ± 5.14 h
same,T1/2,[1]; [10],4.09 ± 4.24 h
same,TMAX,[1]; [10],8.00 ± 0.00 h
same,AUCLast,[1]; [11],18.86 ± 5.73 ng·h/mL
same,CMAX,[1]; [11],1.99 ± 1.39 ng/mL
same,MRT,[1]; [11],15.64 ± 8.69 h
same,T1/2,[1]; [11],7.20 ± 5.98 h
same,TMAX,[1]; [11],8.67 ± 2.31 h
Nc1ncn([C@H]2C[C@H](O)[C@@H](CO)O2)c(=O)n1 [Decitabine monohydrate],stability,[2],stable
